# Laboratory results taken from paper PMC12526058, “1,2,4-Thiadiazolidin-3,5-Diones as Inhibitors of Cysteine Proteases” (Molecules, 2025).
# Where “and” joins values, the source holds several entries; their conditions need not be identical. Equal values may be shown once. Entries after “also recorded” stand apart in the source; their conditions may differ.
# Key:
# [1] = molecular target: Bromelain (Ananas comosus, UniProt P14518); design: method as in PMID 33177555; settings: cited from earlier work
# Bromelain, sequence (P14518 whole entry): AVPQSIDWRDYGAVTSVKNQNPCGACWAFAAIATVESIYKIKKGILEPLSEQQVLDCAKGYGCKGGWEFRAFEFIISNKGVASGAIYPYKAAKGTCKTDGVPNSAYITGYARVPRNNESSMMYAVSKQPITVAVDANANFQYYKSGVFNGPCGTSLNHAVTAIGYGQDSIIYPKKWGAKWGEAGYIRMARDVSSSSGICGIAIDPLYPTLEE
# [2] = molecular target: T1, Papain (Carica papaya, UniProt P00784); design: method as in PMID 21329361; settings: cited from earlier work
# T1 construct: purchased Sigma
# T1 sequence (P00784 134-345): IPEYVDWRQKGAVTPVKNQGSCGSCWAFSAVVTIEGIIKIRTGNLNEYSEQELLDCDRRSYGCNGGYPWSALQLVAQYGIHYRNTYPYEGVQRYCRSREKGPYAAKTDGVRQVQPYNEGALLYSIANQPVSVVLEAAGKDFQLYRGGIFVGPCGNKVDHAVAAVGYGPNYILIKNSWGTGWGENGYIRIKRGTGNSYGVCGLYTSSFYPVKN
# [3] = tested on: PLpro; settings: noncovalent, binding to S4–S3 subsites; read-out: IC50 for inhibition of PLpro; cited from earlier work
# [4] = molecular target: T1, Papain; test: Papain inhibition, IC50 (Z-Phe-Arg-MCA substrate, 10 min pre-incubation); format: biochemical; settings: for IC50 / IC50 for inhibition of Papain: 30 °C, 10 min pre-incubation, 100 mM sodium phosphate, 1 mM EDTA, pH 6.0, Z-Phe-Arg-MCA, Papain 120 nM
# Procedure: Papain and Bromelain were purchased from Sigma. Papain was previously activated at 25 °C in a degassed 100 mM sodium phosphate, 1 mM EDTA, pH 6.0 buffer containing 5 mM DTT (dithiothreitol) for 10 min, as previously described. To remove the DTT excess, a 1 mL solution of activated Papain was loaded on a 3 mL syringe with 1 mL Sephadex G25 size exclusion resin (Amersham Pharmacia, Amersham, UK). The enzyme was eluted with the same assay buffer, and its activity was monitored using Z-Phe-Arg-MCA as the substrate.
# The activities of Cathepsin L and Papain were assessed using Z-Phe-Arg-MCA.
# [5] = molecular target: SARS-CoV-2 3CLpro (Severe acute respiratory syndrome coronavirus 2, UniProt P0DTD1); test: 3CLpro inhibition, IC50 (FRET substrate, 10 min pre-incubation); format: biochemical
# [6] = molecular target: T1, Papain; test: Papain inactivation kinetics, two-step irreversible mechanism; format: biochemical; settings: Papain 48nM, Z-FR-MCA 1.5µM, 100 mM sodium phosphate, 1 mM EDTA, pH 6.0; for KI (inactivation): read-out: Ki, Papain inactivation (Ki = k-3/k3)
# From the text: (§1) This is confirmed by kinetic analyses of the reaction of THIA-3 with Papain, used as a diagnostic method as previously reported. The kinetic constant values of the reaction of the ten THIA compounds with Papain, for the reaction paths shown below, are reported in Table S2.
# Table S2. Values of the kinetic constants for Papain inactivation kinetics analyses by all THIA compounds obtained for a two-step irreversible mechanism (see below the reaction paths) as reported in the reference (31)
# Conditions: Papain 48nM, substrate Z-FR-MCA 1.5µM. Buffer: 100 mM sodium phosphate, 1 mM EDTA, pH 6.0. The kinetic constants for the reaction are indicated in the scheme below.
# Ki represents the relation: Ki = k-3/k3, which is the dissociation constant describing the binding affinity between the inhibitor and the enzyme. In contrast, the IC50 is the concentration of inhibitor required to reduce enzymatic activity to half of its uninhibited value. The IC50 is less precise than Ki and depends on measurement conditions and the mechanism of inhibition. […] It is noteworthy that kinetic constants for Papain inactivation by THIA compounds are consistent with a two-step irreversible mechanism.
# [7] = Stability of THIA derivatives in organic solvents and buffers (LC-MS); format: physicochemical; settings: for Stability of 10 mM stock solutions in DMSO stored at −20 °C: 10 mM in DMSO, freezer −20 °C, LC-MS
# Procedure: We chose THIA-3 as a reference due to its simplicity in larger-scale synthesis to evaluate the stability of this class of compounds. […] In the Tris buffer, decomposition to 1,3-diphenylurea was very slow, with some decomposition only apparent after 12 h of incubation (Figure S1B). We also evaluated the stability of 10 mM stock solutions of the ten THIAs in DMSO stored in a freezer (−20 °C) by Liquid Chromatography Mass Spectrometry (LC-MS). […] DMSO is also considered a reagent, but we have not explored the decomposition of THIA compounds in DMSO further, as it falls outside the scope of this work.
# Figure S1. (A) - Stability THIA-3 in DMSO with 1% H2O. (B)- Stability of THIA-3 in water,100 mM sodium phosphate, Tris buffer pH 7.4, with 1 to 40% ACN.
# Figure S2. Stability of THIAs in dimethyl sulfoxide and stored at -20 °C
# [8] = molecular target: SARS-CoV-2 PLpro (Severe acute respiratory syndrome coronavirus 2, UniProt P0DTD1); test: biochemical
# [9] = molecular target: T1, Papain; test: Type of inhibition (time dependence, reversibility) on Papain; format: biochemical; settings: reverted by reducing agents
# Procedure: (§2) Initially, we identified the type of inhibition in each protease using THIA-3 as a reference compound for all the tested THIA derivatives. […] Due to the susceptibility of the THIA derivatives to reducing agents, such as Cys or DTT (Figure S4), the proteases Papain, Cathepsin L, 3CLpro, and PLpro were separately pre-activated by 5 mM DTT during 30 min, which was removed by gel filtration, forming stock solutions of the activated proteases, and then kept at −20 °C under an N2 atmosphere for future use.
# as §1
# (§3) Figure S3. […] The assay has been performed following the procedure described in Reference ACS Omega 6 (2021) 16584−16591. https://doi.org/10.1021/acsomega.1c01797.
# Figure S4. Inhibition of Papain by THIA-3 and its reversibility by cysteine (Cys) as a reducing agent. Z-FR-MCA as substrate, Papain activity was assessed before and after pre-incubation with 5µM THIA-3 for 5 min, and then assayed after Cys addition (10 µM).
# [10] = molecular target: T2, Cathepsin L (Homo sapiens, UniProt P07711); test: Type of inhibition on Cathepsin L; format: biochemical
# T2 construct: made in house; host or cells: Pichia pastoris
# T2 sequence (P07711 114-333): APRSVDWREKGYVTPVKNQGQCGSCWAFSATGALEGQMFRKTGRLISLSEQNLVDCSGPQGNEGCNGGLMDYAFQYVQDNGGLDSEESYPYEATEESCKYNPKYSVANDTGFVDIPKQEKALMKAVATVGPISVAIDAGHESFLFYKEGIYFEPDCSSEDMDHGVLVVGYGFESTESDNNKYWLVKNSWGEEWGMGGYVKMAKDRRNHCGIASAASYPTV
# Procedure: as §2
# [11] = molecular target: 3CLpro (Severe acute respiratory syndrome coronavirus 2, UniProt P0DTD1); test: Type of inhibition (time dependence, reversibility) on 3CLpro; format: biochemical, SARS-CoV-2; settings: reverted by reducing agents
# Procedure: as §2, §1, §3
# [12] = molecular target: PLpro (Severe acute respiratory syndrome coronavirus 2, UniProt P0DTD1); test: Type of inhibition (reversibility assay) on PLpro; format: biochemical, SARS-CoV-2
# [13] = IC50 for inhibition of 3CLpro, 30 °C, 10 min pre-incubation, 50 mM Tris, 1 mM EDTA, pH 7.5, Abz-[…](Dnp)-NH2, 3CLpro 27 nM
# [14] = IC50 for inhibition of 3CLpro (bound), unit inferred
Compound,IC50 [4],IC50 for inhibition of Papain [4],"IC50 [5, 13] [nM]","k3, Papain inactivation [6] [µM/s]","k4, Papain inactivation [6] [s⁻¹]",KI (inactivation) [6] [nM],Stability of 10 mM stock solutions in DMSO stored at −20 °C [7],IC50 [8] [µM],other results
"CC(C)C[C@H](NC(=O)[C@H]1O[C@@H]1C(=O)O)C(=O)NCCCCN=C(N)N (relative stereo) [E-64, L-trans-Epoxysuccinyl-leucylamido (4-guanidino)butane]",,,,,,,,,Inhibition of Bromelain [1]: poor inhibition
"Cc1ccc(-n2sc(=O)n(Cc3ccc(F)cc3)c2=O)cc1 [CCG-50014, 4-(4-fluorobenzyl)-2-p-tolyl-1,2,4-thiadiazolidine-3,5-dione]",,,,,,,,,Inhibition of Papain [2]: complete absence of papain inhibition; also recorded: failed to inhibit Papain
O=c1sn(-c2ccccc2)c(=O)n1Cc1ccccc1 [THIA-1],2160 ± 90 nM,in the μM range,130 ± 10,19.9,0.013,260,the most resistant,25 ± 3,
COc1ccc(-n2sc(=O)n(Cc3ccccc3)c2=O)cc1 [THIA-2],1280 ± 70 nM,in the μM range,120 ± 10,24.6,0.012,320,the most resistant,8.3 ± 0.8,
O=c1sn(-c2ccccc2)c(=O)n1-c1ccccc1 [THIA-3],140 ± 20 nM,,110 ± 10,19.7,0.008,170,,8.5 ± 0.2,"Type of inhibition of Papain [9]: covalent irreversible inhibition; also recorded: two-step covalent enzyme inactivation mechanism; Type of inhibition of Cathepsin L [10]: irreversible inhibition; Type of inhibition of 3CLpro [11]: covalent irreversible inhibition; also recorded: two-step covalent enzyme inactivation mechanism; Type of inhibition of PLpro [12]: reversible inhibition; Stability in DMSO with 1% water [7]: decomposed to 1,3-diphenylurea; Stability in acetonitrile (ACN) [7]: remained stable"
COc1ccc(-n2sc(=O)n(-c3ccccc3)c2=O)cc1 [THIA-4],70 nM and 71 nM,,130 ± 10,4.9,0.015,80,,7.6 ± 0.9,
COc1ccc(-n2sc(=O)n(-c3ccc(C)cc3)c2=O)cc1 [THIA-5],102 ± 3 nM,,90 ± 10,12.3,0.021,270,,3.9 ± 0.7,
COc1ccc(-n2sc(=O)n(-c3ccc(OC)cc3)c2=O)cc1 [THIA-6],10 ± 1 nM,,30 ± 10,14.5,0.019,270,,12.5 ± 0.9,Fold higher Papain inhibitory potency than THIA-4 ([4]; ratio of Papain IC50 values): sevenfold; Fold increase in Papain inhibitory potency compared to THIA-8 ([4]; ratio of Papain IC50 values): 240 fold; IC50 ([5]; unit inferred): < 50 nM
COc1ccc(-n2sc(=O)n(-c3ccc(Cl)cc3)c2=O)cc1 [THIA-7],130 ± 10 nM,in the nanomolar range,10 ± 10,17.3,0.009,160,the most resistant,14.4 ± 0.7,"IC50 [5, 14]: < 50 nM"
COc1ccc(-n2sc(=O)n(C3CCCCC3)c2=O)cc1 [THIA-8],2400 ± 100 nM,in the μM range,190 ± 10,109.9,0.016,680,the most resistant,4.2 ± 0.1,
Cc1ccc(-n2sc(=O)n(-c3ccccc3)c2=O)cc1 [THIA-9],110 ± 10 nM,,160 ± 80,14.5,0.024,340,,10.4 ± 0.4,
O=c1sn(-c2ccc(F)cc2)c(=O)n1-c1ccccc1 [THIA-10],10 nM and 11 nM,,20 ± 10,13.7,0.022,310,the most resistant; also recorded: THIA-10 No degradation detected,10 ± 1,"IC50 [5, 14]: < 50 nM; Type of inhibition of Papain [9]: two-step covalent enzyme inactivation mechanism"
